Experimental data: the NIST ThermoML archive (doi:10.1016/j.fluid.2005.06.010)

Assay: xn = mol fraction of the nth substance listed
Conditions: Fluid (supercritical or subcritical phases), Vibrating tube method

c1ccc2ccccc2c1 [naphthalene] + O=C=O
Conditions	mass density [kg/m3]
313.11 K, 8747 kPa, x1 = 0.0049	531.42
313.11 K, 8855 kPa, x1 = 0.0049	556.55
313.11 K, 8983 kPa, x1 = 0.0093	627.46
313.11 K, 9034 kPa, x1 = 0.0093	633.13
313.11 K, 9048 kPa, x1 = 0.0049	590.85
313.11 K, 9499 kPa, x1 = 0.0049	639
313.11 K, 9997 kPa, x1 = 0.0049	670.97
313.11 K, 10053 kPa, x1 = 0.0093	697.27
313.11 K, 11012 kPa, x1 = 0.0049	712.47
313.11 K, 11036 kPa, x1 = 0.0093	731.61
313.11 K, 11998 kPa, x1 = 0.0093	755.87
313.11 K, 12044 kPa, x1 = 0.0049	741.27
313.11 K, 12486 kPa, x1 = 0.0173	783.64
313.11 K, 12995 kPa, x1 = 0.0049	761.49
313.11 K, 13003 kPa, x1 = 0.0093	775.73
313.11 K, 13034 kPa, x1 = 0.0173	790.35
313.11 K, 14017 kPa, x1 = 0.0049	779.61
313.11 K, 14028 kPa, x1 = 0.0093	792.52
313.11 K, 14045 kPa, x1 = 0.0173	805.22
313.11 K, 14979 kPa, x1 = 0.0049	794.2
313.11 K, 14995 kPa, x1 = 0.0093	806.12
313.11 K, 15031 kPa, x1 = 0.0173	818.06
313.11 K, 16007 kPa, x1 = 0.0093	818.64
313.11 K, 16029 kPa, x1 = 0.0049	808.12
313.11 K, 16046 kPa, x1 = 0.0173	829.54
313.11 K, 16999 kPa, x1 = 0.0049	819.57
313.11 K, 17003 kPa, x1 = 0.0093	829.62
313.11 K, 17015 kPa, x1 = 0.0173	839.94
313.11 K, 18017 kPa, x1 = 0.0173	849.35
313.11 K, 18019 kPa, x1 = 0.0093	839.78
313.11 K, 18053 kPa, x1 = 0.0049	830.86
313.11 K, 19023 kPa, x1 = 0.0049	840.37
313.11 K, 19029 kPa, x1 = 0.0093	849.05
313.11 K, 19030 kPa, x1 = 0.0173	858.05
313.11 K, 19995 kPa, x1 = 0.0093	857.27
313.11 K, 20008 kPa, x1 = 0.0049	849.27
313.11 K, 20013 kPa, x1 = 0.0173	865.93
313.11 K, 20987 kPa, x1 = 0.0049	857.52
313.11 K, 20997 kPa, x1 = 0.0093	865.26
313.11 K, 21031 kPa, x1 = 0.0173	873.48
313.11 K, 21996 kPa, x1 = 0.0049	865.5
313.11 K, 22000 kPa, x1 = 0.0093	872.7
313.11 K, 22008 kPa, x1 = 0.0173	880.38
313.11 K, 22977 kPa, x1 = 0.0049	872.82
313.11 K, 22989 kPa, x1 = 0.0173	886.86
313.11 K, 22998 kPa, x1 = 0.0093	879.67
313.11 K, 24021 kPa, x1 = 0.0093	886.44
313.11 K, 24036 kPa, x1 = 0.0173	893.38
313.11 K, 24043 kPa, x1 = 0.0049	880.36
313.11 K, 24684 kPa, x1 = 0.0173	897.25
313.11 K, 24941 kPa, x1 = 0.0093	892.28
313.13 K, 10564 kPa, x1 = 0.0144	726.54
313.13 K, 10994 kPa, x1 = 0.0144	737.45
313.13 K, 12022 kPa, x1 = 0.0144	761.26
313.13 K, 13026 kPa, x1 = 0.0144	779.83
313.13 K, 13996 kPa, x1 = 0.0144	794.9
313.13 K, 15027 kPa, x1 = 0.0144	808.74
313.13 K, 16009 kPa, x1 = 0.0144	820.49
313.13 K, 16978 kPa, x1 = 0.0144	831.02
313.13 K, 17970 kPa, x1 = 0.0144	840.48
313.13 K, 19038 kPa, x1 = 0.0144	850.11
313.13 K, 20010 kPa, x1 = 0.0144	858.26
313.13 K, 21047 kPa, x1 = 0.0144	866.4
313.13 K, 22028 kPa, x1 = 0.0144	873.6
313.13 K, 23018 kPa, x1 = 0.0144	880.48
313.13 K, 24032 kPa, x1 = 0.0144	887.14
313.13 K, 25059 kPa, x1 = 0.0144	893.55
318.03 K, 13470 kPa, x1 = 0.0198	763.8
318.03 K, 13587 kPa, x1 = 0.0198	765.92
318.03 K, 13765 kPa, x1 = 0.0198	769.11
318.03 K, 13870 kPa, x1 = 0.0198	770.92
318.03 K, 13982 kPa, x1 = 0.0198	772.89
318.03 K, 14098 kPa, x1 = 0.0198	774.83
318.03 K, 14247 kPa, x1 = 0.0198	777.23
318.03 K, 14369 kPa, x1 = 0.0198	779.18
318.03 K, 14487 kPa, x1 = 0.0198	781.08
318.03 K, 14571 kPa, x1 = 0.0198	782.37
318.03 K, 14668 kPa, x1 = 0.0198	783.91
318.03 K, 14765 kPa, x1 = 0.0198	785.29
318.03 K, 14877 kPa, x1 = 0.0198	787
318.03 K, 14970 kPa, x1 = 0.0198	788.42
318.03 K, 15080 kPa, x1 = 0.0198	789.97
318.03 K, 15304 kPa, x1 = 0.0198	793.1
318.03 K, 15487 kPa, x1 = 0.0198	795.62
